Converted amounts (≈) assume the structure as drawn.
These compounds were tested on Staphylococcus aureus (assay: Antibacterial activity against Staphylococcus aureus ATCC 29213 after 24 hrs by two-fold serial dilution method). Conditions: ATCC 29213, 24 h.
Type: functional

SMILES | MIC
CCOC(=O)C(=NNC1=C(C(=O)OCC)C(c2ccc(N(C)C)cc2)c2c(C)n[nH]c2N1)C(=O)OCC (configuration not stated) | 976 µM
CCOC(=O)C1=C(N/N=C(\C(C)=O)C(=O)c2ccccc2)Nc2[nH]nc(C)c2C1c1ccc(N(C)C)cc1 (configuration not stated) | 1940 µM
CCOC(=O)C1=C(N/N=C(/C#N)C(=O)OCC)Nc2[nH]nc(C)c2C1c1ccc(N(C)C)cc1 (configuration not stated) | 2150 µM
CCOC(=O)C1=C(N/N=C(\C#N)C(N)=O)Nc2[nH]nc(C)c2C1c1ccc(N(C)C)cc1 (configuration not stated) | 4580 µM
CCOC(=O)C1=C(N/N=C(/Cl)C#N)Nc2[nH]nc(C)c2C1c1ccc(N(C)C)cc1 (configuration not stated) | > 200 µg/mL

The compounds below were run on Bacillus cereus (assay: Antibacterial activity against Bacillus cereus UW 85 after 24 hrs by two-fold serial dilution method). Conditions: UW 85, 24 h.
Type: functional

SMILES | MIC
OC(Cn1cncn1)(Cn1cncn1)c1ccc(F)cc1F [FLUCONAZOLE] | > 200 µg/mL
CCOC(=O)C(=NNC1=C(C(=O)OCC)C(c2ccc(N(C)C)cc2)c2c(C)n[nH]c2N1)C(=O)OCC (configuration not stated) | 976 µM
CCOC(=O)C1=C(N/N=C(\C(C)=O)C(=O)c2ccccc2)Nc2[nH]nc(C)c2C1c1ccc(N(C)C)cc1 (configuration not stated) | 1940 µM
CCOC(=O)C1=C(N/N=C(/C#N)C(=O)OCC)Nc2[nH]nc(C)c2C1c1ccc(N(C)C)cc1 (configuration not stated) | 1070 µM
CCOC(=O)C1=C(N/N=C(\C#N)C(N)=O)Nc2[nH]nc(C)c2C1c1ccc(N(C)C)cc1 (configuration not stated) | 2290 µM
CCOC(=O)C1=C(N/N=C(/Cl)C#N)Nc2[nH]nc(C)c2C1c1ccc(N(C)C)cc1 (configuration not stated) | 2340 µM

The compounds below were run on Escherichia coli (assay: Antibacterial activity against Escherichia coli ATCC 12435 after 24 hrs by two-fold serial dilution method). Conditions: ATCC 12435, 24 h.
Type: functional

SMILES | MIC
OC(Cn1cncn1)(Cn1cncn1)c1ccc(F)cc1F [FLUCONAZOLE] | > 200 µg/mL
CCOC(=O)C(=NNC1=C(C(=O)OCC)C(c2ccc(N(C)C)cc2)c2c(C)n[nH]c2N1)C(=O)OCC (configuration not stated) | 976 µM
CCOC(=O)C1=C(N/N=C(\C(C)=O)C(=O)c2ccccc2)Nc2[nH]nc(C)c2C1c1ccc(N(C)C)cc1 (configuration not stated) | 1940 µM
CCOC(=O)C1=C(N/N=C(/C#N)C(=O)OCC)Nc2[nH]nc(C)c2C1c1ccc(N(C)C)cc1 (configuration not stated) | 1070 µM
CCOC(=O)C1=C(N/N=C(\C#N)C(N)=O)Nc2[nH]nc(C)c2C1c1ccc(N(C)C)cc1 (configuration not stated) | 1150 µM
CCOC(=O)C1=C(N/N=C(/Cl)C#N)Nc2[nH]nc(C)c2C1c1ccc(N(C)C)cc1 (configuration not stated) | 2340 µM

Each compound was assayed on Pseudomonas aeruginosa (assay: Antibacterial activity against Pseudomonas aeruginosa PAO1 after 24 hrs by two-fold serial dilution method). Conditions: PAO1, 24 h.
Type: functional

SMILES | MIC
OC(Cn1cncn1)(Cn1cncn1)c1ccc(F)cc1F [FLUCONAZOLE] | > 200 µg/mL
CCOC(=O)C(=NNC1=C(C(=O)OCC)C(c2ccc(N(C)C)cc2)c2c(C)n[nH]c2N1)C(=O)OCC (configuration not stated) | 976 µM
CCOC(=O)C1=C(N/N=C(\C(C)=O)C(=O)c2ccccc2)Nc2[nH]nc(C)c2C1c1ccc(N(C)C)cc1 (configuration not stated) | 972 µM
CCOC(=O)C1=C(N/N=C(/C#N)C(=O)OCC)Nc2[nH]nc(C)c2C1c1ccc(N(C)C)cc1 (configuration not stated) | 1070 µM
CCOC(=O)C1=C(N/N=C(\C#N)C(N)=O)Nc2[nH]nc(C)c2C1c1ccc(N(C)C)cc1 (configuration not stated) | 1150 µM
CCOC(=O)C1=C(N/N=C(/Cl)C#N)Nc2[nH]nc(C)c2C1c1ccc(N(C)C)cc1 (configuration not stated) | 1170 µM

The compounds below were run on Candida albicans (assay: Antifungal activity against Candida albicans after 48 hrs by two-fold serial dilution method). Conditions: not given.
Type: functional

SMILES | MIC
OC(Cn1cncn1)(Cn1cncn1)c1ccc(F)cc1F [FLUCONAZOLE] | 6530 µM (≈ 2000 µg/mL)
CCOC(=O)C(=NNC1=C(C(=O)OCC)C(c2ccc(N(C)C)cc2)c2c(C)n[nH]c2N1)C(=O)OCC (configuration not stated) | 3900 µM (≈ 2000 µg/mL)
CCOC(=O)C1=C(N/N=C(\C(C)=O)C(=O)c2ccccc2)Nc2[nH]nc(C)c2C1c1ccc(N(C)C)cc1 (configuration not stated) | 1940 µM (≈ 1000 µg/mL)
CCOC(=O)C1=C(N/N=C(/C#N)C(=O)OCC)Nc2[nH]nc(C)c2C1c1ccc(N(C)C)cc1 (configuration not stated) | 537 µM (≈ 250 µg/mL)
CCOC(=O)C1=C(N/N=C(\C#N)C(N)=O)Nc2[nH]nc(C)c2C1c1ccc(N(C)C)cc1 (configuration not stated) | 4580 µM (≈ 2000 µg/mL)
CCOC(=O)C1=C(N/N=C(/Cl)C#N)Nc2[nH]nc(C)c2C1c1ccc(N(C)C)cc1 (configuration not stated) | 4670 µM (≈ 2000 µg/mL)

The compounds below were run on Aspergillus fumigatus (assay: Antifungal activity against Aspergillus fumigatus 293 after 48 hrs by two-fold serial dilution method). Conditions: Aspergillus fumigatus, 293, 48 h.
Type: functional

SMILES | MIC
OC(Cn1cncn1)(Cn1cncn1)c1ccc(F)cc1F [FLUCONAZOLE] | > 200 µg/mL
CCOC(=O)C(=NNC1=C(C(=O)OCC)C(c2ccc(N(C)C)cc2)c2c(C)n[nH]c2N1)C(=O)OCC (configuration not stated) | 1950 µM
CCOC(=O)C1=C(N/N=C(\C(C)=O)C(=O)c2ccccc2)Nc2[nH]nc(C)c2C1c1ccc(N(C)C)cc1 (configuration not stated) | 3890 µM
CCOC(=O)C1=C(N/N=C(/C#N)C(=O)OCC)Nc2[nH]nc(C)c2C1c1ccc(N(C)C)cc1 (configuration not stated) | 2150 µM
CCOC(=O)C1=C(N/N=C(\C#N)C(N)=O)Nc2[nH]nc(C)c2C1c1ccc(N(C)C)cc1 (configuration not stated) | 4580 µM
CCOC(=O)C1=C(N/N=C(/Cl)C#N)Nc2[nH]nc(C)c2C1c1ccc(N(C)C)cc1 (configuration not stated) | 4670 µM

What follows are compounds tested on Aspergillus flavus (assay: Antifungal activity against Aspergillus flavus 3375 after 48 hrs by two-fold serial dilution method). Conditions: Aspergillus flavus, 3375, 48 h.
Type: functional

SMILES | MIC
OC(Cn1cncn1)(Cn1cncn1)c1ccc(F)cc1F [FLUCONAZOLE] | > 200 µg/mL
CCOC(=O)C(=NNC1=C(C(=O)OCC)C(c2ccc(N(C)C)cc2)c2c(C)n[nH]c2N1)C(=O)OCC (configuration not stated) | 1950 µM
CCOC(=O)C1=C(N/N=C(\C(C)=O)C(=O)c2ccccc2)Nc2[nH]nc(C)c2C1c1ccc(N(C)C)cc1 (configuration not stated) | 3890 µM
CCOC(=O)C1=C(N/N=C(/C#N)C(=O)OCC)Nc2[nH]nc(C)c2C1c1ccc(N(C)C)cc1 (configuration not stated) | 2150 µM
CCOC(=O)C1=C(N/N=C(\C#N)C(N)=O)Nc2[nH]nc(C)c2C1c1ccc(N(C)C)cc1 (configuration not stated) | 4580 µM
CCOC(=O)C1=C(N/N=C(/Cl)C#N)Nc2[nH]nc(C)c2C1c1ccc(N(C)C)cc1 (configuration not stated) | 2340 µM

The compounds below were run on Chromobacterium violaceum (assay: Inhibition of quorum sensing system in Chromobacterium violaceum ATCC 12472 assessed as diameter of violacein pigment inhibition at 5 mg/ml after 48 hrs). Conditions: not given.

SMILES | diameter of the inhibition zone (DIZ)
Oc1cc(O)c2c(c1)O[C@H](c1ccc(O)c(O)c1)[C@@H](O)C2 | 2 mm
CCOC(=O)C(=NNC1=C(C(=O)OCC)C(c2ccc(N(C)C)cc2)c2c(C)n[nH]c2N1)C(=O)OCC (configuration not stated) | < 2 mm
CCOC(=O)C1=C(N/N=C(\C(C)=O)C(=O)c2ccccc2)Nc2[nH]nc(C)c2C1c1ccc(N(C)C)cc1 (configuration not stated) | < 2 mm
CCOC(=O)C1=C(N/N=C(/C#N)C(=O)OCC)Nc2[nH]nc(C)c2C1c1ccc(N(C)C)cc1 (configuration not stated) | < 2 mm
CCOC(=O)C1=C(N/N=C(\C#N)C(N)=O)Nc2[nH]nc(C)c2C1c1ccc(N(C)C)cc1 (configuration not stated) | < 2 mm
CCOC(=O)C1=C(N/N=C(/Cl)C#N)Nc2[nH]nc(C)c2C1c1ccc(N(C)C)cc1 (configuration not stated) | < 2 mm

These compounds were tested on HepG2 (assay: Antitumor activity against human HepG2 cells assessed as inhibition of cell proliferation after 48 hrs by MTT assay). Conditions: HepG2, 48 h.
Type: functional, cell-based

SMILES | IC50
CCOC(=O)C(=NNC1=C(C(=O)OCC)C(c2ccc(N(C)C)cc2)c2c(C)n[nH]c2N1)C(=O)OCC (configuration not stated) | 80.8 µM
CCOC(=O)C1=C(N/N=C(\C(C)=O)C(=O)c2ccccc2)Nc2[nH]nc(C)c2C1c1ccc(N(C)C)cc1 (configuration not stated) | 42.3 µM
CCOC(=O)C1=C(N/N=C(/C#N)C(=O)OCC)Nc2[nH]nc(C)c2C1c1ccc(N(C)C)cc1 (configuration not stated) | 46.4 µM
CCOC(=O)C1=C(N/N=C(\C#N)C(N)=O)Nc2[nH]nc(C)c2C1c1ccc(N(C)C)cc1 (configuration not stated) | 48.4 µM
CCOC(=O)C1=C(N/N=C(/Cl)C#N)Nc2[nH]nc(C)c2C1c1ccc(N(C)C)cc1 (configuration not stated) | 23.6 µM

The compounds below were run on MCF7 (assay: Antitumor activity against human MCF7 cells assessed as inhibition of cell proliferation after 48 hrs by MTT assay). Conditions: MCF7, 48 h.
Type: functional, cell-based

SMILES | IC50
CCOC(=O)C(=NNC1=C(C(=O)OCC)C(c2ccc(N(C)C)cc2)c2c(C)n[nH]c2N1)C(=O)OCC (configuration not stated) | 89.8 µM
CCOC(=O)C1=C(N/N=C(\C(C)=O)C(=O)c2ccccc2)Nc2[nH]nc(C)c2C1c1ccc(N(C)C)cc1 (configuration not stated) | 47.3 µM
CCOC(=O)C1=C(N/N=C(/C#N)C(=O)OCC)Nc2[nH]nc(C)c2C1c1ccc(N(C)C)cc1 (configuration not stated) | 35.6 µM
CCOC(=O)C1=C(N/N=C(\C#N)C(N)=O)Nc2[nH]nc(C)c2C1c1ccc(N(C)C)cc1 (configuration not stated) | 50.1 µM
CCOC(=O)C1=C(N/N=C(/Cl)C#N)Nc2[nH]nc(C)c2C1c1ccc(N(C)C)cc1 (configuration not stated) | 23.2 µM

The compounds below were run on HeLa (assay: Antitumor activity against human HeLa cells assessed as inhibition of cell proliferation after 48 hrs by MTT assay). Conditions: read-out: IC50.
Type: functional, cell-based

SMILES | IC50
CCOC(=O)C(=NNC1=C(C(=O)OCC)C(c2ccc(N(C)C)cc2)c2c(C)n[nH]c2N1)C(=O)OCC (configuration not stated) | 83.8 µM
CCOC(=O)C1=C(N/N=C(\C(C)=O)C(=O)c2ccccc2)Nc2[nH]nc(C)c2C1c1ccc(N(C)C)cc1 (configuration not stated) | 47.4 µM
CCOC(=O)C1=C(N/N=C(/C#N)C(=O)OCC)Nc2[nH]nc(C)c2C1c1ccc(N(C)C)cc1 (configuration not stated) | 39.2 µM
CCOC(=O)C1=C(N/N=C(\C#N)C(N)=O)Nc2[nH]nc(C)c2C1c1ccc(N(C)C)cc1 (configuration not stated) | 47.3 µM
CCOC(=O)C1=C(N/N=C(/Cl)C#N)Nc2[nH]nc(C)c2C1c1ccc(N(C)C)cc1 (configuration not stated) | 26.2 µM

Reference: ChEMBL document CHEMBL4270617, “Design, synthesis, antimicrobial, antiquorum-sensing and antitumor evaluation of new series of pyrazolopyridine derivatives” (Eur J Med Chem, 2018)
